In patent publication US7807676B2, “Diketo-Piperazine and Piperidine derivatives as antiviral agents” (priority 2006, dated 2010):

The compounds below were run on HIV-1 single-round infectious reporter virus (assay: Single-round infectious HIV-1 luciferase reporter virus infection of HeLa CD4 cells (antiviral EC50)). Details: Human immunodeficiency virus 1, HeLa, read-out: EC50 Group from Table 3.
Assay type: cell-based
Method: • Virus production—Human embryonic Kidney cell line, 293T, was propagated in Dulbecco's Modified Eagle Medium (Invitrogen, Carlsbad, Calif.) containing 10% fetal Bovine serum (FBS, Sigma, St. Louis, Mo.). • Virus infection—Human epithelial cell line, HeLa, expressing the HIV-1 receptor CD4 was propagated in Dulbecco's Modified Eagle Medium (Invitrogen, Carlsbad, Calif.) containing 10% fetal Bovine serum (FBS, Sigma, St. Louis, Mo.) and supplemented with 0.2 mg/mL Geneticin (Invitrogen, Carlsbad, Calif.). Virus-Single-round infectious reporter virus was produced by co-transfecting human embryonic Kidney 293 cells with an HIV-1 envelope DNA expression vector and a proviral cDNA containing an envelope deletion mutation and the luciferase reporter gene inserted in place of HIV-1 nef sequences (Chen et al, Ref. 41). Transfections were performed using lipofectAMINE PLUS reagent as described by the manufacturer (Invitrogen, Carlsbad, Calif.). Experiment • 1. HeLa CD4 cells were plated in 96 well plates at a cell density of 1×10^4 cells per well in 100 μl Dulbecco's Modified Eagle Medium containing 10% fetal Bovine serum and incubated overnight. • 2. Compound was added in a 2 μl dimethylsulfoxide solution, so that the final assay concentration would be ≦10 μM. • 3. 100 μl of single-round infectious reporter virus in Dulbecco's Modified Eagle Medium was then added to the plated cells and compound at an approximate multiplicity of infection (MOI) of 0.01, resulting in a final volume of 200 μl per well. • 4. Virally-infected cells were incubated at 37 degrees Celsius, in a CO2 incubator, and harvested 72 h after infection. • 5. Viral infection was monitored by measuring luciferase expression from viral DNA in the infected cells using a luciferase reporter gene assay kit, as described by the manufacturer (Roche Molecular Biochemicals, Indianapolis, Ind.). Infected cell supernatants were removed and 50 μl of lysis buffer was added per well. After 15 minutes, 50 μl of freshly-reconstituted luciferase assay reagent was added per well. Luciferase activity was then quantified by measuring luminescence using a Wallac microbeta scintillation counter. • 6. The percent inhibition for each compound was calculated by quantifying the level of luciferase expression in cells infected in the presence of each compound as a percentage of that observed for cells infected in the absence of compound and subtracting such a determined value from 100. • 7. An EC50 provides a method for comparing the antiviral potency of the compounds of this disclosure. The effective concentration for fifty percent inhibition (EC50) was calculated with the Microsoft Excel Xlfit curve fitting software. For each compound, curves were generated from percent inhibition calculated at 10 different concentrations by using a four parameter logistic model (model 205). Table 3 is the key for the data in Table 4. Results

`COc1cnc(-n2ccnn2)c2[nH]cc(C(=O)C(=O)N3CCN(c4nnnn4-c4ccccc4)CC3)c12` [A-1] and `O=C(C(=O)N1CCN(c2nnnn2-c2ccccc2)CC1)c1c[nH]c2c(-n3ccnn3)ncc(F)c12` [A-5] cannot be ordered by EC50: < 500 nM for the first, < 500 nM for the second.

Compared with `O=C(C(=O)N1CCN(c2ccc(-c3ccccc3)cc2)CC1)c1c[nH]c2c(-n3ccnn3)ncc(F)c12` [A-2], `O=C(C(=O)N1CCN(c2cccc(-c3ccccc3)c2)CC1)c1c[nH]c2c(-n3ccnn3)ncc(F)c12` [A-3] is lower in EC50: > 500 nM for the first, < 500 nM for the second. The second is the more potent here.

`O=C(C(=O)N1CCN(c2ccccc2-c2ccccc2)CC1)c1c[nH]c2c(-n3ccnn3)ncc(F)c12` [A-4] and `O=C(C(=O)N1CCN(c2nc3ccccc3n2-c2ccccc2)CC1)c1c[nH]c2c(-n3ccnn3)ncc(F)c12` [A-37] cannot be ordered by EC50: < 500 nM for the first, < 500 nM for the second.

`O=C(C(=O)N1CCN(c2cc(O)nnc2-c2ccccc2)CC1)c1c[nH]c2c(-n3ccnn3)ncc(F)c12` [A-6] and `O=C(C(=O)N1CCN(c2nsnc2-c2ccccc2)CC1)c1c[nH]c2c(-n3ccnn3)ncc(F)c12` [A-13] cannot be ordered by EC50: < 500 nM for the first, < 500 nM for the second.

`O=C(C(=O)N1CCN(c2nccc(-c3ccccc3)n2)CC1)c1c[nH]c2c(-n3ccnn3)ncc(F)c12` [A-7] and `O=C(C(=O)N1CCN(c2nc(-c3ccccc3)cs2)CC1)c1c[nH]c2c(-n3ccnn3)ncc(F)c12` [A-8] cannot be ordered by EC50: < 500 nM for the first, < 500 nM for the second.

`COc1cnc(-n2cnc(C)n2)c2[nH]cc(C(=O)C(=O)N3CCN(c4nnnn4-c4ccccc4)CC3)c12` [A-9] and `COc1cnc(-n2cnc(C)n2)c2[nH]cc(C(=O)C(=O)N3CCN(c4nncn4-c4ccccc4)CC3)c12` [A-44] cannot be ordered by EC50: < 500 nM for the first, < 500 nM for the second.

`O=C(C(=O)N1CCN(c2nnnn2-c2ccccc2)CC1)c1c[nH]c2ncccc12` [A-10] and `COc1ccnc2[nH]cc(C(=O)C(=O)N3CCN(c4nnnn4-c4ccccc4)CC3)c12` [A-11] cannot be ordered by EC50: < 500 nM for the first, < 500 nM for the second.

`COc1ncc(OC)c2c(C(=O)C(=O)N3CCN(c4nnnn4-c4ccccc4)CC3)c[nH]c12` [A-12] and `COc1cnc(-c2ncc(OC)c3c(C(=O)C(=O)N4CCN(c5nnnn5-c5ccccc5)CC4)c[nH]c23)c2[nH]ccc12` [A-64] cannot be ordered by EC50: < 500 nM for the first, < 500 nM for the second.

`C[C@@H]1CN(c2nnnn2-c2ccccc2)CCN1C(=O)C(=O)c1c[nH]c2c(-n3ccnn3)ncc(F)c12` [A-14] and `C[C@H]1CN(c2nnnn2-c2ccccc2)CCN1C(=O)C(=O)c1c[nH]c2c(-n3ccnn3)ncc(F)c12` [A-15] cannot be ordered by EC50: < 500 nM for the first, < 500 nM for the second.

Compared with `O=C(C(=O)N1CCC(c2nc3ccccc3n2-c2ccccc2)CC1)c1c[nH]c2c(-n3ccnn3)ncc(F)c12` [A-16], `O=C(C(=O)N1CCC(c2c(-c3ccccc3)[nH]c3ccccc23)CC1)c1c[nH]c2c(-n3ccnn3)ncc(F)c12` [A-36] is higher in EC50: < 500 nM for the first, > 500 nM for the second. The first is the more potent here.

`O=C(C(=O)N1CCN(c2nccnc2-c2ccccc2)CC1)c1c[nH]c2c(-n3ccnn3)ncc(F)c12` [A-17] and `O=C(C(=O)N1CCN(c2nc(-c3ccccc3)ns2)CC1)c1c[nH]c2c(-n3ccnn3)ncc(F)c12` [A-28] cannot be ordered by EC50: < 500 nM for the first, < 500 nM for the second.

First: O=C(C(=O)N1CCN([C@H]2CCCC[C@H]2c2ccccc2)CC1)c1c[nH]c2c(-n3ccnn3)ncc(F)c12 [A-19]
Second: O=C(C(=O)N1CCN(c2ccccc2C2CCCCC2)CC1)c1c[nH]c2c(-n3ccnn3)ncc(F)c12 [A-42]
The EC50 of the first is lower: < 500 nM for the first, > 500 nM for the second.

`O=C(C(=O)N1CCN(c2nncn2-c2ccccc2)CC1)c1c[nH]c2c(-n3ccnn3)ncc(F)c12` [A-20] and `O=C(C(=O)N1CCN(c2nncn2-c2ccccc2)CC1)c1c[nH]c2c(-n3ccnn3)ncc(O)c12` [A-43] cannot be ordered by EC50: < 500 nM for the first, < 500 nM for the second.

Compared with `O=C(C(=O)N1CCC(N2C(=O)CC2c2ccccc2)CC1)c1c[nH]c2c(-n3ccnn3)ncc(F)c12` (centres unmarked) [A-21], `O=C(C(=O)N1CCC(N2CCC2c2ccccc2)CC1)c1c[nH]c2c(-n3ccnn3)ncc(F)c12` (centres unmarked) [A-24] is higher in EC50: < 500 nM for the first, > 500 nM for the second.

`O=C(C(=O)N1CCN(c2nnc(O)n2-c2ccccc2)CC1)c1c[nH]c2c(-n3ccnn3)ncc(F)c12` [A-22] and `Cc1nnc(N2CCN(C(=O)C(=O)c3c[nH]c4c(-n5ccnn5)ncc(F)c34)CC2)n1-c1ccccc1` [A-47] cannot be ordered by EC50: < 500 nM for the first, < 500 nM for the second.

First: O=C(C(=O)N1CCN(N2C(=O)CC2c2ccccc2)CC1)c1c[nH]c2c(-n3ccnn3)ncc(F)c12 (centres unmarked) [A-23]
Second: O=C(C(=O)N1CCN(c2nccn2-c2ccccc2)CC1)c1c[nH]c2c(-n3ccnn3)ncc(F)c12 [A-49]
The EC50 of the first is higher: > 500 nM for the first, < 500 nM for the second.

`COC(=O)c1ccc(F)c2c(C(=O)C(=O)N3CCN(c4nnnn4-c4ccccc4)CC3)c[nH]c12` [A-25] and `O=C(C(=O)N1CCN(c2nnnn2-c2ccccc2)CC1)c1c[nH]c2cccc(F)c12` [A-27] cannot be ordered by EC50: < 500 nM for the first, < 500 nM for the second.

`C[C@@H]1CN(c2nnnn2-c2ccccc2)[C@@H](C)CN1C(=O)C(=O)c1c[nH]c2c(-n3ccnn3)ncc(F)c12` [A-26] and `C[C@@H]1CN(C(=O)C(=O)c2c[nH]c3c(-n4ccnn4)ncc(F)c23)CCN1c1nnnn1-c1ccccc1` [A-45] cannot be ordered by EC50: < 500 nM for the first, < 500 nM for the second.

`COc1cnc(-n2cnc(C)n2)c2[nH]cc(C(=O)C(=O)N3CCN(c4nnnn4-c4ccccc4)C[C@H]3C)c12` [A-30] and `COc1cnc(-n2cnc(C)n2)c2[nH]cc(C(=O)C(=O)N3CCN(c4nnnn4-c4ccccc4)C[C@@H]3C)c12` [A-31] cannot be ordered by EC50: < 500 nM for the first, < 500 nM for the second.

`COc1cnc(-n2cnc(C)n2)c2[nH]cc(C(=O)C(=O)N3C[C@H](C)N(c4nnnn4-c4ccccc4)C[C@H]3C)c12` [A-32] and `COc1cnc(-n2cnc(C)n2)c2[nH]cc(C(=O)C(=O)N3CCN(c4nnnn4-c4ccccc4)[C@H](C)C3)c12` [A-46] cannot be ordered by EC50: < 500 nM for the first, < 500 nM for the second.

`O=C(C(=O)N1CCC(c2nnc(-c3ccccc3)o2)CC1)c1c[nH]c2c(-n3ccnn3)ncc(F)c12` [A-33] and `O=C(C(=O)N1CCC(c2nc(-c3cccnc3)no2)CC1)c1c[nH]c2c(-n3ccnn3)ncc(F)c12` [A-34] cannot be ordered by EC50: > 500 nM for the first, > 500 nM for the second.

`Cc1cc(N2CCN(C(=O)C(=O)c3c[nH]c4c(-n5ccnn5)ncc(F)c34)CC2)nc(-c2ccccc2O)n1` [A-35] and `Cc1cc(N2CCN(C(=O)C(=O)c3c[nH]c4c(-n5ccnn5)ncc(F)c34)CC2)n(-c2ccccc2)n1` [A-48] cannot be ordered by EC50: < 500 nM for the first, < 500 nM for the second.

`COc1cnc(-n2cnc(C)n2)c2[nH]cc(C(=O)C(=O)N3CCN(c4nc5ccccc5n4-c4ccccc4)CC3)c12` [A-38] and `COc1cnc(-n2cnc(C)n2)c2[nH]cc(C(=O)C(=O)N3CCN(c4nccn4-c4ccccc4)CC3)c12` [A-54] cannot be ordered by EC50: < 500 nM for the first, < 500 nM for the second.

`COc1cnc(-n2cnc(C)n2)c2[nH]cc(C(=O)C(=O)N3CCN(C4=NCCCN4c4ccccc4)CC3)c12` [A-39] and `O=C(C(=O)N1CCN(C2=NCCCN2c2ccccc2)CC1)c1c[nH]c2c(-n3ccnn3)ncc(F)c12` [A-40] cannot be ordered by EC50: > 500 nM for the first, > 500 nM for the second.

First: O=C(C(=O)N1CCN(c2cccc(C3CCCCC3)c2)CC1)c1c[nH]c2c(-n3ccnn3)ncc(F)c12 [A-41]
Second: CCOc1ccccc1N1CCN(C(=O)C(=O)c2c[nH]c3c(-n4ccnn4)ncc(F)c23)CC1 [A-50]
The EC50 of the first is higher: > 500 nM for the first, < 500 nM for the second. The second is the more potent here.

Compared with `O=C(C(=O)N1CCN(c2ncccc2C(F)(F)F)CC1)c1c[nH]c2c(-n3ccnn3)ncc(F)c12` [A-51], `O=C(C(=O)N1CCN(c2ccccc2C(F)(F)F)CC1)c1c[nH]c2c(-n3ccnn3)ncc(F)c12` [A-52] is higher in EC50: < 500 nM for the first, > 500 nM for the second. The first is the more potent here.

`COc1cnc(Br)c2[nH]cc(C(=O)C(=O)N3CCN(c4nncn4-c4ccccc4)CC3)c12` [A-53] and `COc1cnc(-c2cnccn2)c2[nH]cc(C(=O)C(=O)N3CCN(c4nncn4-c4ccccc4)CC3)c12` [A-57] cannot be ordered by EC50: < 500 nM for the first, < 500 nM for the second.

`O=C(C(=O)N1CCN(C2=NS(=O)(=O)N=C2c2ccccc2)CC1)c1c[nH]c2c(-n3ccnn3)ncc(F)c12` [A-55] and `CCOc1cccnc1N1CCN(C(=O)C(=O)c2c[nH]c3c(-n4ccnn4)ncc(F)c23)CC1` [A-62] cannot be ordered by EC50: < 500 nM for the first, < 500 nM for the second.

Compared with `C[C@@H]1CN(C(=O)C(=O)c2c[nH]c3c(Cl)ncc(O)c23)CCN1c1nnnn1-c1ccccc1` [A-56], `C[C@H]1CN(C(=O)C(=O)c2c[nH]c3c(-n4ccnn4)ncc(F)c23)CCN1c1nnnn1-c1ccccc1` [A-61] is lower in EC50: > 500 nM for the first, < 500 nM for the second.

`COc1cnc(-n2ccnn2)c2[nH]cc(C(=O)C(=O)N3C(C)CN(c4nnnn4-c4ccccc4)CC3C)c12` (centres unmarked) [A-58] and `COc1cnc(-n2cnc(C)n2)c2[nH]cc(C(=O)C(=O)N3CCN(c4nnnn4-c4ccccc4)[C@@H](C)C3)c12` [A-60] cannot be ordered by EC50: < 500 nM for the first, < 500 nM for the second.

`COc1cnc(-n2ccnn2)c2[nH]cc(C(=O)C(=O)N3CCN(c4nnnn4-c4ccccn4)CC3)c12` [A-59] and `CCOc1cccnc1N1CCN(C(=O)C(=O)c2c[nH]c3c(-n4cnc(C)n4)ncc(OC)c23)CC1` [A-63] cannot be ordered by EC50: < 500 nM for the first, < 500 nM for the second.
